# From patent US4451485A, “Treatment of cardio-vascular diseases with 3-(2,2,2-trimethylhydrazinium) propionate dihydrate” (Institu Organicheskogo Sinteza Akademii Nauk Latviiskoi SSR, priority 1981, dated 1984)
# Tests used:
# [1] = Variation of arrhythmogenic and lethal doses of CaCl2 in mice; format: in vivo, white mice
# Description: Thus, the effect of the preparation according to the present invention has been studied relative to the variation of arrhythmogenic and lethal doses of calcium chloride. An experiment was carried out on white mice of both sexes weighing 19-28 g which were narcotized by urethane and an ECG was remetered in transthoracic lead. A 2% solution of calcium chloride was administered to the test animals into the tail vein at a constant rate (0.1 ml for 15 seconds). The average dose of calcium chloride causing the appearance of arrhythmia and heart arrest was determined. In the test groups, the studied compounds were administered 45, 60, 120, 180 and 240 minutes before the beginning of administration of calcium chloride (Table 1).
# Variation of arrthythmogenic and lethal doses of CaCl2
# with time after administration of the studied
# pharmaceutical compositions in experiments on mice.
# [2] = Variation of the arrhythmogenic dose of Strophanthin G in rabbits; format: in vivo
# Description: The effect of the preparation according to the present invention on the variation of the arrhythmogenic dose of Strophanthin G was studied in experiments on rabbits of both sexes with a mass of […] administered with Strophanthin G at a dose of 60 μg/kg into the marginal auricular vein and, after every 5-10 minutes, at a dose of 5-10 μg/kg until the appearance of a stable ventricular extrasystole. In the test groups 20-30 minutes before administration of the glycoside a solution of 3-(2,2,2-trimethylhydrazinium)propionate was prophylactically administered intravenously. The ECG was recorded in II standard lead.
# At a further increase of the dose to the preparation to the present invention, its protective effect was increased too.
# [3] = Therapeutic effect on Strophanthin G arrhythmia in rabbits; format: in vivo
# Description: To investigate the therapeutic effect of the preparation according to the present invention relative to the Strophanthin arrhythmia, another series of experiments was carried out. Strophanthin was intravenously administered to rabbits of both sexes with a mass of 3.0 to 3.8 kg at a general dose of 80 μg/kg which caused arrhythmia within 40-60 minutes. The test preparation was intravenously administered at the background of arrhythmia in the test group.
# After the administration of the preparation at a dose of 5 mg/kg the regular synusal rhythm was retained for 12±5 minutes on the average, whereafter arrhythmia was gradually renewed, but it could be again eliminated by a repeated administration of the preparation at a dose of 2-5 mg/kg. In such cases the sinusal rhythm was retained for 15 to 30 minutes and in the majority of tests arrhythmia never renewed. Furthermore, an experiment was carried out on narcotized guinea pigs with a mass of 600-710 g to which Strophanthin -K was administered into the femoral vein at a total dose of 500 μg/kg.
# [4] = Strophanthin arrhythmia in guinea pigs (450 μg/kg); format: in vivo
# Description: As the third model of arrhythmia, there was used strophanthin arrhythmia in guinea pigs. […] Against the background of arrhythmia the test preparations were administered intravenously.
# [5] = Arterial pressure, respiration and responses to biogenic amines in narcotized cats; format: in vivo
# Description: The study of the preparation according to the present invention for arterial pressure, breathing and hemodynamic effects of norepinephrine, neoepinephrine, novoepinephrine, acetylcholine and histamine was carried out in experiments on cats with a mass of 2.8 to 4.0 kg narcotized by chlorase. There were then recorded the animals' arterial pressure, respiration and ECG on a physiograph produced by Narco Bio-Systems Co.
# [6] = Coronary circulation and hemodynamics in narcotized cats; format: in vivo
# Description: In acute experiments on narcotized cats with a mass of from 2.9 to 4.1 kg under artificial respiration, arterial pressure was recorded in the common carotide artery, central venous pressure in the right auricle, volume rate of blood flow in the ascending aortic arch and volume rate of the coronary blood flow. At the same time, there was recorded the content of oxyhemoglobin in venous coronary blood.
# in vivo = format: in vivo
# [7] = Vessel wall irritation and allergenic capacity; format: in vivo
# [8] = Embryotoxic and teratogenic effects in rats; format: in vivo, white rats; settings: up to 10,000 mg/kg perorally, any day of pregnancy
# [9] = Antianginal effect in patients, intravenous; format: in vivo; settings: 0.2 to 0.4 g intravenous
# Description: The antianginal and antiarrhythmic effects of the preparation according to the present invention were evaluated with the use of the injection pharmaceutical form of the preparation administered intravenously in an amount of 0.2 to 0.4 g based on the active ingredient.
# [10] = Physicochemical properties of the dihydrate (solubility, stability, hygroscopicity)
# [11] = 10 mg/kg intraperitoneal, 60 minutes
# [12] = 10 mg/kg intraperitoneal, 120 minutes
# [13] = 10 mg/kg intraperitoneal, 180 minutes
# [14] = 30 mg/kg intraperitoneal, 60 minutes
# [15] = 30 mg/kg intraperitoneal, 180 minutes
# [16] = 30 mg/kg intraperitoneal, 240 minutes
compound,measurement,setting,value
"C[N+](C)(C)NCCC(=O)[O-] [3-(2,2,2-trimethylhydrazinium)propionate]",Arrhythmogenic dose of CaCl2,"[1]; 10 mg/kg intraperitoneal, 45 minutes before CaCl2, control 85",91.5 mg/kg
same,Lethal dose of CaCl2,"[1]; 10 mg/kg intraperitoneal, 45 minutes before CaCl2, control 100.9",101.7 mg/kg
same,Arrhythmogenic dose of CaCl2,[1]; [11],103.4 mg/kg
same,Lethal dose of CaCl2,[1]; [11],122.2 mg/kg
same,Arrhythmogenic dose of CaCl2,[1]; [12],111.9 mg/kg
same,Lethal dose of CaCl2,[1]; [12],130 mg/kg
same,Arrhythmogenic dose of CaCl2,[1]; [13],110.1 mg/kg
same,Lethal dose of CaCl2,[1]; [13],116 mg/kg
same,Arrhythmogenic dose of CaCl2,[1]; [14],106.7 mg/kg
same,Lethal dose of CaCl2,[1]; [14],122.8 mg/kg
same,Arrhythmogenic dose of CaCl2,[1]; [15],117.5 mg/kg
same,Lethal dose of CaCl2,[1]; [15],130.2 mg/kg
same,Arrhythmogenic dose of CaCl2,[1]; [16],121.9 mg/kg
same,Lethal dose of CaCl2,[1]; [16],128 mg/kg
same,Effect on arrhythmogenic and lethal doses of calcium chloride,[1]; single intraperitoneal administration,increases the arrhythmogenic and lethal doses of calcium chloride
same,Duration of arrhythmia,"[2]; 10 mg/kg intravenously, control 20 ± 10",12 ± 6 min
same,Arrhythmogenic dose of Strophanthin,"[2]; 10 mg/kg intravenously, control 67 ± 9",0.09 ± 0.015 mg/kg
same,Arrhythmogenic dose of Strophanthin,[2]; 25 mg/kg intravenously,0.1 ± 0.01 mg/kg
same,Duration of arrhythmia,[2]; 25 mg/kg intravenously,8 ± 5 min
same,Arrhythmogenic dose of Strophanthin,[2]; 50 mg/kg intravenously,0.106 ± 0.012 mg/kg
same,Duration of arrhythmia,[2]; 50 mg/kg intravenously,15 ± 8 min
same,Duration regular sinus rhythm was retained,"[3]; 5 mg/kg, average",12 ± 5 min
same,Time to arrest of ventricular tachyarrhythmia,[3]; 1 to 3 mg/kg intravenous,1 to 2 min
same,Effect on ventricular tachyarrhythmia,"[3]; 1 to 3 mg/kg intravenous, majority of tests",temporarily arrested ventricular tachyarrhythmia
same,Changes in the complex QRST,[3]; intravenous,reduced
same,Duration sinusal rhythm was retained after repeated administration,"[3]; repeated administration, 2-5 mg/kg",15 to 30 min
same,ED50,"[4]; Cavia porcellus, intravenous, read-out: ED50, Strophanthin arrhythmia in guinea pigs",7.8 ± 2.3 mg/kg
same,"Antiarrhythmic index LD50/ED50, Strophanthin arrhythmia in guinea pigs","[4]; guinea pig, in vivo",568
same,Duration for which Strophanthin-induced arrhythmia is cut short / ECG improved,[4]; intravenous,5 to 20 min
same,"Change in arterial pressure, pulse frequency and respiration",[5]; 0.5 to 2.0 mg/kg intravenous,"did not result in any essential change in arterial pressure, pulse frequency and respiration"
same,Level of responses to biogenic amines,[5]; 0.5 to 2.0 mg/kg intravenous,did not change changed the level of responses to biogenic amines
same,Change in response to acetyl choline,[5]; 15-25 mg/kg,10-15%
same,Change in response to neoepinephrine,[5]; 15-25 mg/kg,5-10%
same,Increase of the response to histamine,[5]; 15-25 mg/kg,5-10%
same,Short-time reduction of arterial pressure,[5]; 15-25 mg/kg,5-20 mm Hg
same,Duration of increase of arterial pressure,"[5]; 15-25 mg/kg, some cases",5 to 12 min
same,Increase of arterial pressure vs initial value,"[5]; 15-25 mg/kg, some cases",5-10 mm Hg
same,Blood pressure or response to biogenic amines,[5]; further increase of dose,did not cause changes in blood pressure or response to the administration of biogenic amines
same,Change of arterial pressure,[6]; 2 mg/kg,0 + -5%
same,Change of central venous pressure,[6]; 2 mg/kg,0%
same,Change of heart output,[6]; 2 mg/kg,0 + +5%
same,Increase duration,[6]; 2 mg/kg,20 min
same,"Volume rate, percent of increase",[6]; 2 mg/kg,15%
same,Change of central venous pressure,[6]; 10 mg/kg,-5%
same,Change of heart output,[6]; 10 mg/kg,+5 - 10%
same,Increase duration,[6]; 10 mg/kg,45 min
same,"Volume rate, percent of increase",[6]; 10 mg/kg,40%
same,Change of arterial pressure,[6]; 25 mg/kg,-8 - +5%
same,Change of central venous pressure,[6]; 25 mg/kg,-10%
same,Change of heart output,[6]; 25 mg/kg,+10 - 20%
same,Increase duration,[6]; 25 mg/kg,70 min
same,"Volume rate, percent of increase",[6]; 25 mg/kg,55%
same,Therapeutical index higher than carbocromene,[6]; 314 vs. 130,approximately 3 times
same,Saturation of the venous blood of coronary sinus with oxygen,[6]; in vivo,lastingly increase saturation of the venous blood of coronary sinus with oxygen
same,Therapeutical index,[6]; in vivo,314
same,LD50,"in vivo; mouse, in vivo, ip, read-out: Acute toxicity, LD50",7850 mg/kg
same,Toxicity lower than that of carbocromene,in vivo; vs carbocromene,12 times
same,Irritation of vessel walls,[7]; intravenous,does not cause irritation of vessel walls
same,Allergic responses,"[7]; intravenous and peroral, single or up to 30 days",nor does it cause allergic responses
same,Embryotoxic or teratogenic effects,[8],no embryotoxic or teratogenic effects
same,Stability of analgesic effect,[9],not always stable
same,Effect on retrosternal pains,[9]; 8 cases in 5 patients,rapidly cut short retrosternal pains
same,Hygroscopicity,[10]; dihydrate,slightly hygroscopic
same,Solubility in hot ethanol and methanol,[10]; dihydrate,well soluble
same,Solubility in nonpolar solvents,[10]; dihydrate,insoluble
same,Solubility in water,[10]; dihydrate,well soluble
same,Storage stability,"[10]; dihydrate, closed area, room temperature",2 years
same,Thermal stability,[10]; heating above 40° C.,loses crystallization water and slowly decomposes
